Tests used:
Format in all cases: biochemical
Pim-1 = Pim-1 (Homo sapiens (Human), UniProt P11309); assay: Pim-1 kinase assay (AlphaScreen, Biotin-labeled BAD peptide substrate); conditions: 1 mM ATP; read-out: Pim1 IC50
Protocol: (§1) Pim-1 and Pim-3 kinase assays—20 μL reactions were run in white 384 well polystyrene plates dotted with 0.8 μL compound/DMSO in the assay buffer (50 mM Tris, pH 7.5, 0.01% Tween-20, 5 mM MgCl2, 0.01% BSA, 5 mM DTT), containing 0.05 μM Biotin-labeled BAD peptide substrate (AnaSpec 62269), 1 mM ATP, and […] (Pim-1, Invitrogen PV3503) or […] (Pim-3, Millipore 14-738) enzyme for 1 h at 25° C. Reactions were stopped by addition of 10 μL STOP Buffer (150 mM Tris, pH=7.5, 150 mM NaCl, 75 mM EDTA, 0.01% Tween-20, 0.3% BSA) supplemented with Phospho-Bad (Ser112) Antibody (Cell Signaling 9291) diluted 666-fold, and Streptavidin donor beads (PerkinElmer 6760002) along with Protein-A acceptor beads (PerkinElmer 6760137) at 15 μg/mL each. Supplementation of the STOP buffer with beads and stopping the reactions were done under reduced light. Prior to the stopping reactions STOP buffer with beads was preincubated for 1 h in the dark at room temperature. After stopping the reactions, plates were incubated for 1 h in the dark at room temperature before reading on a PHERAstar FS plate reader (BMG Labtech) under reduced light.

Pim-2 = Pim-2 (Homo sapiens (Human), UniProt Q9P1W9); assay: Pim-2 kinase assay (TR-FRET, Fluorescein-labeled CREBtide peptide substrate); conditions: 1 mM ATP; read-out: Pim2 IC50
Chain of Pim-2 (Q9P1W9 whole entry): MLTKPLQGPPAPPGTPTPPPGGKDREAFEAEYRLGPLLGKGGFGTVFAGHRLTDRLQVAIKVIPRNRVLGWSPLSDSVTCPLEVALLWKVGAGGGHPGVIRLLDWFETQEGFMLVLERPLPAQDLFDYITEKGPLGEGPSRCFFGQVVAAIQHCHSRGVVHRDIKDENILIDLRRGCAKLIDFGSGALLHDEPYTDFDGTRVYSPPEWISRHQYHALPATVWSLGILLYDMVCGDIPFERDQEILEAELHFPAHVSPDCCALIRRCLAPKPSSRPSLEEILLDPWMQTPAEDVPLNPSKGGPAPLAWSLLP
Protocol: Pim-2 kinase assay—20 μL reactions were run in white 384 well polystyrene plates dotted with 0.8 μL compound/DMSO in the assay buffer (50 mM Tris, pH 7.5, 0.01% Tween-20, 5 mM MgCl2, 0.01% BSA, 5 mM DTT), containing 0.05 μM Fluorescein-labeled CREBtide peptide substrate (Invitrogen PV3508), 1 mM ATP, and 1 nM enzyme (Invitrogen PV3649) for 2 h at 25° C. Reactions were stopped by addition of 10 μL TR-FRET Dilution Buffer (Invitrogen PV3574) with 30 mM EDTA and 1.5 nM LanthaScreen Tb-CREB pSer133 antibody (Invitrogen PV3566). After 30 min. incubation at room temperature, plates were read on a PHERAstar FS plate reader (BMG Labtech).

Pim-3 = Pim-3 (Homo sapiens (Human), UniProt Q86V86); assay: Pim-3 kinase assay (AlphaScreen, Biotin-labeled BAD peptide substrate); conditions: 1 mM ATP; read-out: Pim3 IC50
Protocol: as §1

Chain of Pim-1 (P11309 whole entry): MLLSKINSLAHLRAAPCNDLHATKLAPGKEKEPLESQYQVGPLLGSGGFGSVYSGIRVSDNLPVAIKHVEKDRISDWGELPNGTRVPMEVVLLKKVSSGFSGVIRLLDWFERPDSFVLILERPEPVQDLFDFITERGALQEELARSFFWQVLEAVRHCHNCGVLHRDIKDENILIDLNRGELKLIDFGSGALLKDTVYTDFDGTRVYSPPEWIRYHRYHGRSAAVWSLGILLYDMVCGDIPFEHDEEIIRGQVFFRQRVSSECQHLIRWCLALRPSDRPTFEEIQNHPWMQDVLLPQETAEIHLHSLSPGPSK

Structure (SMILES)	IC50 (Pim-1)	IC50 (Pim-2)	IC50 (Pim-3)
CC(C)c1cc2nc(C(=O)Nc3cnccc3N3C[C@H](C)C[C@H](N)C3)ccc2s1 [Example 51, N-(4-((3S,5R)-3-Amino-5-methylpiperidin-1-yl)pyridin-3-yl)-2-isopropylthieno[3,2-b]pyridine-5-carboxamide]	≤ 10 nM	≤ 100 nM	≤ 10 nM
C[C@@H]1C[C@H](N)CN(c2ccncc2NC(=O)c2ccc3cc([C@@H]4C[C@H]4C)oc3n2)C1 (racemic) [Example 76, N-{4-[(3S,5R)-3-Amino-5-methylpiperidin-1-yl]pyridin-3-yl}-2-(trans-2-methylcyclopropyl)furo[2,3-b]pyridine-6-carboxamide]	≤ 10 nM	≤ 100 nM	≤ 10 nM
C[C@@H]1C[C@H](N)CN(c2ccncc2NC(=O)c2ccc3cc([C@@H]4C[C@@H]4C)oc3n2)C1 (racemic) [Example 75, N-{4-[(3S,5R)-3-Amino-5-methylpiperidin-1-yl]pyridin-3-yl}-2-(cis-2-methylcyclopropyl)furo[2,3-b]pyridine-6-carboxamide]	≤ 10 nM	≤ 100 nM	≤ 10 nM
C[C@H]1CN(c2ccncc2NC(=O)c2ccc3sc(-c4ccc(N5CCOCC5)nc4)cc3n2)C[C@@H](N)[C@@H]1O [Example 44, N-(4-((3R,4R,5S)-3-Amino-4-hydroxy-5-methylpiperidin-1-yl)pyridin-3-yl)-2-(6-morpholinopyridin-3-yl)thieno[3,2-b]pyridine-5-carb oxamide]	≤ 10 nM	100 to 1000 nM	≤ 10 nM
C[C@@H]1C[C@H]1c1cc2ccc(C(=O)Nc3cnccc3N3C[C@@H](N)[C@H](O)[C@@H](C)C3)nc2o1 (racemic) [Example 74, N-{4-[(3R,4R,5S)-3-Amino-4-hydroxy-5-methylpiperidin-1-yl]pyridin-3-yl}-2-(trans-2-methylcyclopropyl)furo[2,3-b]pyridine-6-carboxamide]	≤ 10 nM	≤ 100 nM	≤ 10 nM
CCCc1cc2nc(C(=O)Nc3cnccc3N3C[C@@H](N)[C@H](O)[C@@H](C)C3)ccc2s1 [Example 38, N-(4-((3R,4R,5S)-3-Amino-4-hydroxy-5-methylpiperidin-1-yl)pyridin-3-yl)-2-propylthieno[3,2-b]pyridine-5-carboxamide]	≤ 10 nM	100 to 1000 nM	≤ 10 nM
COc1ccc(F)c(-c2coc3ccc(C(=O)Nc4cnccc4N4C[C@H](C)C[C@H](N)C4)nc23)c1F [Example 22, N-(4-((3S,5R)-3-Amino-5-methylpiperidin-1-yl)pyridin-3-yl)-3-(2,6-difluoro-3-methoxyphenyl)furo[3,2-b]pyridine-5-carboxamide]	≤ 10 nM	≤ 100 nM	≤ 10 nM
C[C@@H]1C[C@H](N)CN(c2ccncc2NC(=O)c2ccc3sc(Cc4ccccc4)cc3n2)C1 [Example 54, N-(4-((3S,5R)-3-Amino-5-methylpiperidin-1-yl)pyridin-3-yl)-2-benzylthieno[3,2-b]pyridine-5-carboxamide]	≤ 10 nM	100 to 1000 nM	≤ 10 nM
C[C@H]1CN(c2ccncc2NC(=O)c2ccc3sc(C4CC4)nc3n2)C[C@@H](N)[C@@H]1O [Example 79, N-{4-[(3R,4R,5S)-3-Amino-4-hydroxy-5-methylpiperidin-1-yl]pyridin-3-yl}-2-cyclopropyl[1,3]thiazolo[4,5-b]pyridine-5-carboxamide]	≤ 10 nM	100 to 1000 nM	≤ 10 nM
N[C@H]1CCCN(c2ccncc2NC(=O)c2ccc3occ(-c4c(F)cccc4F)c3n2)C1 [Example 37, (S)-N-(4-(3-Aminopiperidin-1-yl)pyridin-3-yl)-3-(2,6-difluorophenyl)furo[3,2-b]pyridine-5-carboxamide]	≤ 10 nM	≤ 100 nM	≤ 10 nM
CCCc1cc2nc(C(=O)Nc3cnccc3N3C[C@H](C)C[C@H](N)C3)ccc2o1 [Example 1, N-(4-((3S,5R)-3-Amino-5-methylpiperidin-1-yl)pyridin-3-yl)-2-propylfuro[3,2-b]pyridine-5-carboxamide]	≤ 10 nM	100 to 1000 nM	≤ 10 nM
C[C@@H]1C[C@H](N)CN(c2ccncc2NC(=O)c2ccc3occ(C4CC4)c3n2)C1 [Example 35, N-(4-((3S,5R)-3-Amino-5-methylpiperidin-1-yl)pyridin-3-yl)-3-cyclopropylfuro[3,2-b]pyridine-5-carboxamide]	≤ 10 nM	≤ 100 nM	≤ 10 nM
C[C@@H]1C[C@H](N)C[C@H](c2ccncc2NC(=O)c2ccn3ncc(-c4c(F)cccc4F)c3n2)C1 [Example 83, N-{4-[(1R,3S,5S)-3-Amino-5-methylcyclohexyl]pyridin-3-yl}-3-(2,6-difluorophenyl)pyrazolo[1,5-a]pyrimidine-5-carboxamide]	≤ 10 nM	100 to 1000 nM	≤ 10 nM
C[C@@H]1C[C@H](N)CN(c2ccncc2NC(=O)c2ccc3ccn(C4CCC4)c3n2)C1 [Example 78, N-{4-[(3S,5R)-3-Amino-5-methylpiperidin-1-yl]pyridin-3-yl}-1-cyclobutyl-1H-pyrrolo[2,3-b]pyridine-6-carboxamide]	≤ 10 nM	100 to 1000 nM	≤ 10 nM
CC(C)c1coc2ccc(C(=O)Nc3cnccc3N3C[C@@H](N)[C@H](O)[C@@H](C)C3)nc12 [Example 10, N-(4-((3R,4R,5S)-3-Amino-4-hydroxy-5-methylpiperidin-1-yl)pyridin-3-yl)-3-isopropylfuro[3,2-b]pyridine-5-carboxamide]	≤ 10 nM	≤ 100 nM	≤ 10 nM
CC(C)c1cc2nc(C(=O)Nc3cnccc3N3C[C@@H](N)[C@H](O)[C@@H](C)C3)ccc2o1 [Example 6, N-{4-[(3R,4R,5S)-3-Amino-4-hydroxy-5-methylpiperidin-1-yl]pyridin-3-yl}-2-isopropylfuro[3,2-b]pyridine-5-carboxamide]	10 to 50 nM	100 to 1000 nM	≤ 10 nM
CC(C)c1coc2ccc(C(=O)Nc3cnccc3N3CCC[C@H](N)C3)nc12 [Example 36, (S)-N-(4-(3-Aminopiperidin-1-yl)pyridin-3-yl)-3-isopropylfuro[3,2-b]pyridine-5-carboxamide]	≤ 10 nM	≤ 100 nM	≤ 10 nM
COc1ccc(-c2cc3nc(C(=O)Nc4cnccc4N4C[C@@H](N)[C@H](O)[C@@H](C)C4)ccc3o2)cn1 [Example 7, N-(4-((3R,4R,5S)-3-Amino-4-hydroxy-5-methylpiperidin-1-yl)pyridin-3-yl)-2-(6-methoxypyridin-3-yl)furo[3,2-b]pyridine-5-carboxamide]	≤ 10 nM	> 2000 nM	≤ 10 nM
COc1ccc(-c2cc3nc(C(=O)Nc4cnccc4N4C[C@H](C)C[C@H](N)C4)ccc3o2)cn1 [Example 3, N-(4-((3S,5R)-3-Amino-5-methylpiperidin-1-yl)pyridin-3-yl)-2-(6-methoxypyridin-3-yl)furo[3,2-b]pyridine-5-carboxamide]	≤ 10 nM	> 2000 nM	≤ 10 nM
C[C@H]1CN(c2ccncc2NC(=O)c2ccc3sc(-c4ccccc4F)cc3n2)C[C@@H](N)[C@@H]1O [Example 41, N-(4-((3R,4R,5S)-3-Amino-4-hydroxy-5-methylpiperidin-1-yl)pyridin-3-yl)-2-(2-fluorophenyl)thieno[3,2-b]pyridine-5-carboxamide]	≤ 10 nM	100 to 1000 nM	≤ 10 nM
C[C@@H]1C[C@H](N)C[C@H](c2ccncc2NC(=O)c2ccn3ncc(-c4c(F)cc(CO)cc4F)c3n2)C1 [Example 81, N-{4-[(1R,3S,5S)-3-Amino-5-methylcyclohexyl]pyridin-3-yl}-3-[2,6-difluoro-4-(hydroxymethyl)phenyl]pyrazolo[1,5-a]pyrimidine-5-carboxamide]	≤ 10 nM	≤ 100 nM	≤ 10 nM
Cc1cc2nc(C(=O)Nc3cnccc3N3C[C@H](C)C[C@H](N)C3)ccc2s1 [Example 61, N-(4-((3S,5R)-3-Amino-5-methylpiperidin-1-yl)pyridin-3-yl)-2-methylthieno[3,2-b]pyridine-5-carboxamide]	≤ 10 nM	100 to 1000 nM	≤ 10 nM
C[C@H]1CN(c2ccncc2NC(=O)c2ccc3oc(-c4ccc(N5CCOCC5)nc4)cc3n2)C[C@@H](N)[C@@H]1O [Example 9, N-(4-((3R,4R,5S)-3-Amino-4-hydroxy-5-methylpiperidin-1-yl)pyridin-3-yl)-2-(6-morpholinopyridin-3-yl)furo[3,2-b]pyridine-5-carboxamide]	≤ 10 nM	1000 to 10000 nM	≤ 10 nM

— US9822124B2, “Bicyclic heteroaromatic carboxamide compounds useful as Pim kinase inhibitors” (Incyte Corporation, priority 2014, dated 2017)
